Reference: patent US20260335323A1, “CHIMERIC MOLECULE” (UCL Business Ltd, priority 2023, published 2026)

Key:
[1] = tested on: c-MYC controlled genes; test: RT-qPCR of c-MYC controlled genes in CAL51 cells; assay type: cell-based, human; conditions: 100 nM, 72 hours, vs (+)-JQ1 at equivalent concentration and duration
Experimental: FIG. 11. RT-qPCR quantification of expression of c-MYC controlled genes in CAL51 triple negative breast cancer cell line treated with DMSO, 100 nM (+)-JQ1 or 100 nM NZ-147 for 72 hours. […] MDM2 (A) and CCNE (B) are controlled by cMYC in oncogenic settings, PAICS (C) is a putative target of c-MYC, and eIF4E (D) is a known target of cMYC. n=3, *p<0.05, ** p<0.01, *** p<0.001.
RNA was extracted with the Qiagen RNeasy Mini kit following manufacturers protocol. RT-qPCR SYBR assay was carried out with Mesa Blue following manufacturers instructions, 80 ng RNA per well, experimental triplicates, BioRad CTX Connect qPCR machine. RNA levels were normalized to GAPDH. Experiments were done in biological triplicate. The primers used were as follows:
The levels of c-MYC controlled genes (determined using RT-qPCR) in CAL51 triple negative breast cancer cell line after treatment with DMSO, 100 nM (+)-JQ1 or 100 nM NZ-147 for 72 hours is shown in FIG. 11. In particular MDM2 (FIG. 11A) and CCNE (FIG. 11B) are controlled by cMYC in oncogenic settings, PAICS (FIG. 11C) is a putative target of c-MYC, and elF4E (FIG. 11D) is a known target of c-MYC.

[2] = tested on: A549 cells; test: Cell viability assay (CellTiter Glo), A549; assay type: cell-based, human; conditions: A549, increasing concentrations
Experimental: A549 and H1299 cells were seeded in OptiPlate-384 well plates and treated with increasing concentrations of (+)-JQ1 or NZ-147 from 0 μM to 10 µM in Example 8 and with increasing concentrations of NZ-175 from 0 µM to 10 µM in Example 9. Cells were treated for 120 h before using the luciferase based CellTiter Glo assay (Promega) to measure cell viability.
Cell viability assay was performed in A549 and H1299 cells, which were treated with different concentrations of (+)-JQ1 or NZ-147 at 100 nM for 72 hours (FIG. 10B).
Cell viability assay was performed in A549 and H1299 cells, which were treated with different concentrations of NZ-147 at 100 nM for 72 hours (FIG. 16B).

Structure (SMILES): Cc1sc2c(c1C)C(c1ccc(Cl)cc1)=N[C@@H](CC(=O)NCCOCCOCCOCCn1cc(COc3ccc([C@@H](NC(=O)Nc4cc(C(F)(F)F)cc(C(F)(F)F)c4)C(=O)Nc4ccc(F)cc4F)cc3)nn1)c1nnc(C)n1-2 [NZ-147, (R)-2-(3-(3,5-bis(trifluoromethyl)phenyl)ureido)-2-(4-((1-(1-((S)-4-(4-chlorophenyl)-2,3,9-trimethyl-6H-thieno[3,2-f][1,2,4]triazolo[4,3-a][1,4]diazepin-6-yl)-2-oxo-6,9, 12-trioxa-3-azatetradecan-14-yl)-1H-1,2,3-triazol-4-yl)methoxy)phenyl)-N-(2,4-difluorophenyl) acetamide]
- impact on c-MYC controlled genes vs (+)-JQ1 [1]: significantly more profound impact
- percentage of live cells [2]: dose-dependent decrease in the percentage of live cells
